This experiment has as its system Lewis lung carcinoma i.m., BDF1 mice, T/C %. The experiment can be described thus: NCI In Vivo Anticancer Drug Screen. Data for tumor model Lewis Lung Carcinoma (intramuscular) in B6D2F1 (BDF1) mice. The method, then: The antitumor activity of compounds was measured in mice bearing transplantable tumors. Survival or tumor size were measured and the results are expressed as the measurement made in the treated group (T) divided by the measurement made in the vehicle treated control group (C). The tumor model used in this assay is Lewis Lung Carcinoma (intramuscular) in B6D2F1 (BDF1) mice

Setting [1] is: endpoint: median survival time, dose: 12.5 mg/kg/injection, schedule: Q01DX011 (ip), vehicle: saline, higher = longer survival.

Where “and” joins values, the source holds several entries; their conditions need not be identical. Equal entries are not always repeated. Inconclusive results are not listed.

Turning to `O=NN(CCCl)C(=O)NCCCl`, the T/C was 57 % of control (endpoint: mean tumor weight, dose: 1.5 mg/kg/injection, schedule: Q01DX011 (ip), vehicle: other, higher = larger tumour); 47 % of control (endpoint: mean tumor weight, dose: 3.0 mg/kg/injection, schedule: Q01DX011 (ip), vehicle: other, higher = larger tumour); 12 % of control (endpoint: mean tumor weight, dose: 6.0 mg/kg/injection, schedule: Q01DX011 (ip), vehicle: other, higher = larger tumour); 76 % of control (endpoint: mean tumor weight, dose: 14.0 mg/kg/injection, schedule: Q01DX001 (sc), vehicle: saline, higher = larger tumour); 65 % of control (endpoint: mean tumor weight, dose: 23.0 mg/kg/injection, schedule: Q01DX001 (sc), vehicle: saline, higher = larger tumour); 35 % of control (endpoint: mean tumor weight, dose: 39.0 mg/kg/injection, schedule: Q01DX001 (sc), vehicle: saline, higher = larger tumour). In addition, the T/C reads like this: (endpoint: mean tumor weight, dose: 65.0 mg/kg/injection, schedule: Q01DX001 (sc), vehicle: saline, higher = larger tumour) 22 % of control; (endpoint: median survival time, dose: 1.0 mg/kg/injection, schedule: Q01DX009 (ip), vehicle: saline + alcohol, higher = longer survival) 113 % of control; (endpoint: median survival time, dose: 1.25 mg/kg/injection, schedule: Q01DX015 (ip), vehicle: saline, higher = longer survival) 108 % of control; (endpoint: median survival time, dose: 1.5 mg/kg/injection, schedule: Q01DX011 (ip), vehicle: other, higher = longer survival) 102 % of control; (endpoint: median survival time, dose: 1.5 mg/kg/injection, schedule: Q01DX011 (ip), vehicle: saline, higher = longer survival) 110 % of control; (endpoint: median survival time, dose: 2.0 mg/kg/injection, schedule: Q01DX011 (ip), vehicle: saline, higher = longer survival) 97 % of control. In addition, the T/C is, setting by setting: (endpoint: median survival time, dose: 2.5 mg/kg/injection, schedule: Q01DX015 (ip), vehicle: saline, higher = longer survival) 124 % of control; (endpoint: median survival time, dose: 3.0 mg/kg/injection, schedule: Q01DX011 (ip), vehicle: other, higher = longer survival) 104 % of control; (endpoint: median survival time, dose: 4.0 mg/kg/injection, schedule: Q01DX009 (ip), vehicle: saline + alcohol, higher = longer survival) 113 % of control; (endpoint: median survival time, dose: 4.0 mg/kg/injection, schedule: Q01DX011 (ip), vehicle: saline, higher = longer survival) 115 % of control; (endpoint: median survival time, dose: 5.0 mg/kg/injection, schedule: Q01DX001 (ip), vehicle: saline + alcohol, higher = longer survival) 107 % of control; (endpoint: median survival time, dose: 5.0 mg/kg/injection, schedule: Q01DX015 (ip), vehicle: saline, higher = longer survival) 111 % of control. The T/C by setting is: (endpoint: median survival time, dose: 5.0 mg/kg/injection, schedule: Q07DX003 (ip), vehicle: saline, higher = longer survival) 95 % of control; (endpoint: median survival time, dose: 5.0 mg/kg/injection, schedule: Q16DX002 (ip), vehicle: saline, higher = longer survival) 167 % of control; (endpoint: median survival time, dose: 5.0 mg/kg/injection, schedule: Q## X002 (ip), vehicle: saline, higher = longer survival) 168 % of control; (endpoint: median survival time, dose: 6.0 mg/kg/injection, schedule: Q01DX011 (ip), vehicle: saline, higher = longer survival) 157 % of control; (endpoint: median survival time, dose: 8.0 mg/kg/injection, schedule: Q01DX011 (ip), vehicle: saline, higher = longer survival) 102 % of control and 110 % of control; (endpoint: median survival time, dose: 8.4 mg/kg/injection, schedule: Q01DX001 (ip), vehicle: saline, higher = longer survival) 158 % of control and 160 % of control. For the same molecule, the T/C (endpoint: median survival time, dose: 8.4 mg/kg/injection, schedule: Q06DX002 (ip), vehicle: saline, higher = longer survival) was 105 % of control; the T/C (endpoint: median survival time, dose: 8.4 mg/kg/injection, schedule: Q16DX002 (ip), vehicle: saline, higher = longer survival) is 89 % of control; the T/C (endpoint: median survival time, dose: 8.4 mg/kg/injection, schedule: Q## X002 (ip), vehicle: saline, higher = longer survival) was 87 % of control; the T/C (endpoint: median survival time, dose: 10.0 mg/kg/injection, schedule: Q01DX001 (ip), vehicle: saline + alcohol, higher = longer survival) was 111 % of control; the T/C (endpoint: median survival time, dose: 10.0 mg/kg/injection, schedule: Q07DX003 (ip), vehicle: saline, higher = longer survival) is 94 % of control; the T/C (endpoint: median survival time, dose: 14.0 mg/kg/injection, schedule: Q01DX001 (ip), vehicle: saline, higher = longer survival) was 156 % of control and 157 % of control. Besides, the T/C reads like this: (endpoint: median survival time, dose: 14.0 mg/kg/injection, schedule: Q01DX001 (sc), vehicle: saline, higher = longer survival) 112 % of control; (endpoint: median survival time, dose: 14.0 mg/kg/injection, schedule: Q06DX002 (ip), vehicle: saline, higher = longer survival) 102 % of control; (endpoint: median survival time, dose: 14.0 mg/kg/injection, schedule: Q07DX003 (ip), vehicle: saline, higher = longer survival) 102 % of control; (endpoint: median survival time, dose: 16.0 mg/kg/injection, schedule: Q01DX011 (ip), vehicle: saline, higher = longer survival) 91 % of control; (endpoint: median survival time, dose: 20.0 mg/kg/injection, schedule: Q01DX001 (ip), vehicle: saline + alcohol, higher = longer survival) 123 % of control; (endpoint: median survival time, dose: 20.0 mg/kg/injection, schedule: Q07DX003 (ip), vehicle: saline, higher = longer survival) 111 % of control. For the same molecule, the T/C (endpoint: median survival time, dose: 23.0 mg/kg/injection, schedule: Q01DX001 (ip), vehicle: saline, higher = longer survival) is 208 % of control and 210 % of control; the T/C (endpoint: median survival time, dose: 23.0 mg/kg/injection, schedule: Q06DX002 (ip), vehicle: saline, higher = longer survival) was 109 % of control; the T/C (endpoint: median survival time, dose: 23.0 mg/kg/injection, schedule: Q07DX003 (ip), vehicle: saline, higher = longer survival) is 108 % of control; the T/C (endpoint: median survival time, dose: 39.0 mg/kg/injection, schedule: Q01DX001 (ip), vehicle: saline, higher = longer survival) was 216 % of control and 218 % of control; the T/C (endpoint: median survival time, dose: 39.0 mg/kg/injection, schedule: Q06DX002 (ip), vehicle: saline, higher = longer survival) is 102 % of control; the T/C (endpoint: median survival time, dose: 39.0 mg/kg/injection, schedule: Q16DX002 (ip), vehicle: saline, higher = longer survival) was 61 % of control and 101 % of control. For the same molecule, the T/C (endpoint: median survival time, dose: 39.0 mg/kg/injection, schedule: Q## X002 (ip), vehicle: saline, higher = longer survival) is 104 % of control; the T/C (endpoint: median survival time, dose: 40.0 mg/kg/injection, schedule: Q01DX001 (ip), vehicle: saline + alcohol, higher = longer survival) was 64 % of control; the T/C (endpoint: median survival time, dose: 65.0 mg/kg/injection, schedule: Q01DX001 (ip), vehicle: saline, higher = longer survival) was 38 % of control; the T/C (endpoint: median survival time, dose: 65.0 mg/kg/injection, schedule: Q06DX002 (ip), vehicle: saline, higher = longer survival) is 45 % of control; the T/C (endpoint: median survival time, dose: 65.0 mg/kg/injection, schedule: Q16DX002 (ip), vehicle: saline, higher = longer survival) is 24 % of control.
On to `COc1cc([C@@H]2c3cc4c(cc3[C@H](O)[C@H]3COC(=O)[C@H]23)OCO4)cc(OC)c1OC`, for which the T/C is 100 % of control (endpoint: mean tumor weight, dose: 0.25 mg/kg/injection, schedule: Q01DX011 (ip), vehicle: Klucel (hydroxypropylcellulose) (HPC), higher = larger tumour); 77 % of control (endpoint: mean tumor weight, dose: 0.5 mg/kg/injection, schedule: Q01DX011 (ip), vehicle: Klucel (hydroxypropylcellulose) (HPC), higher = larger tumour); 105 % of control (endpoint: mean tumor weight, dose: 1.0 mg/kg/injection, schedule: Q01DX011 (ip), vehicle: Klucel (hydroxypropylcellulose) (HPC), higher = larger tumour); 87 % of control (endpoint: median survival time, dose: 0.13 mg/kg/injection, schedule: Q01DX011 (ip), vehicle: Klucel (hydroxypropylcellulose) (HPC), higher = longer survival); 107 % of control (endpoint: median survival time, dose: 0.25 mg/kg/injection, schedule: Q01DX011 (ip), vehicle: Klucel (hydroxypropylcellulose) (HPC), higher = longer survival); 114 % of control (endpoint: median survival time, dose: 0.5 mg/kg/injection, schedule: Q01DX011 (ip), vehicle: Klucel (hydroxypropylcellulose) (HPC), higher = longer survival).
For the molecule `CC(=O)[O][Hg][c]1s[c]([Hg][O]C(C)=O)[c]([Hg][O]C(C)=O)[c]1[Hg][O]C(C)=O`, the T/C is, setting by setting: (endpoint: mean tumor weight (est.), dose: 6.25 mg/kg/injection, schedule: Q01DX011 (ip), vehicle: saline, higher = larger tumour) 45 % of control; (endpoint: mean tumor weight (est.), dose: 12.5 mg/kg/injection, schedule: Q01DX011 (ip), vehicle: saline, higher = larger tumour) 37 % of control; under setting [1], 91 % of control.
With `CC1(C)N=C(N)N=C(N)N1c1ccc(CCc2ccccc2)cc1`, the T/C was 84 % of control (endpoint: mean tumor weight, dose: 12.5 mg/kg/injection, schedule: Q01DX011 (ip), vehicle: saline, higher = larger tumour); 46 % of control (endpoint: mean tumor weight, dose: 25.0 mg/kg/injection, schedule: Q01DX011 (ip), vehicle: saline, higher = larger tumour); 104 % of control under setting [1]; 89 % of control (endpoint: median survival time, dose: 25.0 mg/kg/injection, schedule: Q01DX011 (ip), vehicle: saline, higher = longer survival).
For the molecule `CC1(C)N=C(N)N=C(N)N1c1ccc(CCCCc2ccc(Cl)cc2Cl)cc1`, the T/C runs as follows: (endpoint: mean tumor weight, dose: 1.25 mg/kg/injection, schedule: Q01DX011 (ip), vehicle: saline, higher = larger tumour) 65 % of control; (endpoint: mean tumor weight, dose: 2.5 mg/kg/injection, schedule: Q01DX011 (ip), vehicle: saline, higher = larger tumour) 71 % of control; (endpoint: mean tumor weight, dose: 5.0 mg/kg/injection, schedule: Q01DX011 (ip), vehicle: saline, higher = larger tumour) 31 % of control; (endpoint: mean tumor weight, dose: 10.0 mg/kg/injection, schedule: Q01DX011 (ip), vehicle: saline, higher = larger tumour) 65 % of control; (endpoint: median survival time, dose: 1.25 mg/kg/injection, schedule: Q01DX011 (ip), vehicle: saline, higher = longer survival) 110 % of control; (endpoint: median survival time, dose: 2.5 mg/kg/injection, schedule: Q01DX011 (ip), vehicle: saline, higher = longer survival) 93 % of control. For the same molecule, the T/C was 104 % of control (endpoint: median survival time, dose: 5.0 mg/kg/injection, schedule: Q01DX011 (ip), vehicle: saline, higher = longer survival) and 91 % of control (endpoint: median survival time, dose: 10.0 mg/kg/injection, schedule: Q01DX011 (ip), vehicle: saline, higher = longer survival).

These data come from PubChem BioAssay AID272 (DTP/NCI, 2004).
